Measured values taken from patent US11318137B2, “Quinazoline compounds as modulators of Ras signaling” (VANDERBILT UNIVERSITY, priority 2017, dated 2022).

What was measured:
[1] = system: H727 lung cancer cell lines, which contain a G12V K-Ras mutation; assay: Inhibition of cancer cell proliferation (CellTiter-Glo, 3 days); format: cell-based; settings: Homo sapiens, NCI-H727, 72 h, H727 cells, 3 days at 37° C., normalized to DMSO control, read-out: Cell proliferation activity (H727 cancer cell line proliferation IC50)
Protocol: C. Inhibition of Cancer Cell Proliferation
Compounds of the present invention were measured for their ability to kill H727 lung cancer cell lines, which contain a G12V K-Ras mutation. Cell proliferation experiments were conducted in 96-well plates. Cells were plated at 1000 cells/well, incubated overnight, followed by treatment with a dose range of compound for 3 days at 37° C. Cell proliferation was assessed using a CellTiter-Glo assay (Promega) according to the manufacturer's protocol. Data were normalized to DMSO control. IC50 values were determined using a four-parameter dose-response (variable slope) equation. These assays are performed in a manner analogous to the assay disclosed in: Burns, M. C.; Sun, Q.; Daniels, R. N.; Camper, D. V.; Kennedy, J. P.; Phan, J.; Olejniczak, E. O.; Lee, T.; Waterson, A. G.; Rossanese, O. W.; Fesik, S. W. “Approach for targeting Ras with small molecules that activate SOS-mediated nucleotide exchange” Proc. Natl. Acad. Sci. 2014; 11(9): 3401-3406. PMCID: PMC3948241.

[2] = molecular target: T1, Son of Sevenless (SOS) (Homo sapiens, UniProt Q07889); assay: Binding to SOS, fluorescence polarization anisotropy (FPA) displacement of FITC-conjugated probe; settings: binding affinity calculated from IC50 of FITC-probe displacement, read-out: Binding affinities (binding affinity to SOS)
T1 sequence (Q07889 564-1049 limits assumed): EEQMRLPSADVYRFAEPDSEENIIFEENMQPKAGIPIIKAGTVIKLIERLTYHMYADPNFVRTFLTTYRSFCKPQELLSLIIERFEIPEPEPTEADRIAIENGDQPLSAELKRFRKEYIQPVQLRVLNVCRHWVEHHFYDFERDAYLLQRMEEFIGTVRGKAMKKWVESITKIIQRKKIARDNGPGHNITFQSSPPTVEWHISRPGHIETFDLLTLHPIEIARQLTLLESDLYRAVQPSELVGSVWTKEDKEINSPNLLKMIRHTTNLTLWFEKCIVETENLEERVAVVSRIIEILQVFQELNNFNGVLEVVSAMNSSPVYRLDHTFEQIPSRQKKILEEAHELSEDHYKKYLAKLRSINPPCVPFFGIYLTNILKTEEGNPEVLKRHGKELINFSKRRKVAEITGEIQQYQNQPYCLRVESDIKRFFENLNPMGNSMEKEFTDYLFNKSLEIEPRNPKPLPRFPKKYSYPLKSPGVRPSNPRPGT
Method in brief: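 FITC-labelled probe incubated with SOS in buffer; displacement by test compound across a dose range read as fluorescence anisotropy change. IC50 from four-parameter variable-slope fit, binding affinity calculated from IC50.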

[3] = molecular target: T2, SOS-mediated nucleotide exchange on Ras (Homo sapiens, UniProt Q07889); assay: SOS-mediated nucleotide exchange on Ras (BODIPY-GDP fluorescence); format: biochemical; settings: Ras loaded with BODIPY-GDP, GTP and SOS added; EC50 from derived exchange rates
T2 sequence (Q07889 1-1333): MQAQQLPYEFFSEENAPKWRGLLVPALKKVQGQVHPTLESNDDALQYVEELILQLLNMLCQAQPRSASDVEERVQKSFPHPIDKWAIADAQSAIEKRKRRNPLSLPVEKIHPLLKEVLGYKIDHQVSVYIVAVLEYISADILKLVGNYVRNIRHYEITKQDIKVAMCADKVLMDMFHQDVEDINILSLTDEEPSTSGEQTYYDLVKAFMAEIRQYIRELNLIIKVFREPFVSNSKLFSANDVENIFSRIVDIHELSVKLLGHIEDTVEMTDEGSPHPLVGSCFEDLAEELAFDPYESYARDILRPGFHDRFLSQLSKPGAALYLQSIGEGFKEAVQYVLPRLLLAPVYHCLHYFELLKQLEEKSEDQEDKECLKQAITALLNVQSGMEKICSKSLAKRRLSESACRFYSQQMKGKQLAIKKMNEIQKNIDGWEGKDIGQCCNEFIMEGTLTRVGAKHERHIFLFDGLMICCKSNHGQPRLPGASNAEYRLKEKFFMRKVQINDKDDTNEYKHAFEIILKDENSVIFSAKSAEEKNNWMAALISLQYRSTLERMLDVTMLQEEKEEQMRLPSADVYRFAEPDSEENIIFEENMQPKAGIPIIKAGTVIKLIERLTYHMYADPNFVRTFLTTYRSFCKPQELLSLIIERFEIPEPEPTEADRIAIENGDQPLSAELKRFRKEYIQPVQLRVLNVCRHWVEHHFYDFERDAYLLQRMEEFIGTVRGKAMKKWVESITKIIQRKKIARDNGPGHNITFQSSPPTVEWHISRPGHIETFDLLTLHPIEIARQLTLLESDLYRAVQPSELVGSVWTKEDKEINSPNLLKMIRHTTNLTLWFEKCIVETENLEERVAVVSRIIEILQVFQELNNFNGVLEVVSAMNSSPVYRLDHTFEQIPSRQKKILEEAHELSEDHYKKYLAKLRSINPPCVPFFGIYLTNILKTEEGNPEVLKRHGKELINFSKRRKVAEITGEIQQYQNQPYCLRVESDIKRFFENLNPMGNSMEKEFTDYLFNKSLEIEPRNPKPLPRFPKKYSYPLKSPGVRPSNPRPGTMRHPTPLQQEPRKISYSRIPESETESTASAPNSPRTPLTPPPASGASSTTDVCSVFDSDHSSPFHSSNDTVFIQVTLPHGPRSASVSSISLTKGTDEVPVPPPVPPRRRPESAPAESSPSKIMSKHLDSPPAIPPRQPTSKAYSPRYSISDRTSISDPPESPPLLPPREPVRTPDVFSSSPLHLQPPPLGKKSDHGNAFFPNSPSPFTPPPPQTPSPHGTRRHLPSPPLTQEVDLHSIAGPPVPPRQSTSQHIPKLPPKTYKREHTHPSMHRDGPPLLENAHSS
Method in brief: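 Compound, then GTP and SOS, were added to buffered Ras preloaded with BODIPY-GDP, and the fluorescence change from labeled GDP being exchanged for GTP was followed over time. Rates came from single-exponential fits, and EC50 from a four-parameter fit of mean rate against compound concentration.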

CCC(CC)CNc1nc(Nc2ccc(F)c(Cl)c2)nc2c(C3=CCNCC3)cccc12 [Example 98, N^2-(3-chloro-4-fluorophenyl)-N^4-(2-ethylbutyl)-8-(1,2,3,6-tetrahydropyridin-4-yl)quinazoline-2,4-diamine]
IC50 [1]: 1000 to 5000 nM | Ki [2]: 1000 to 5000 nM | EC50 [3]: 5 to 30 µM
